From US12415803B2, “Fused imidazopyridines as reversible inhibitors of Brutons Tyrosine Kinase (BTK)” (Merck Patent GmbH, priority 2018, dated 2025) come the findings set out here.

One experiment deals with full-length human BTK (Homo sapiens (Human), UniProt Q06187). Description: BTK IC50 Enzyme Assay (microfluidic off-chip mobility shift kinase assay).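 Further: Read-out separates phosphorylated peptide product from substrate by their charge-to-mass difference, with IC50 fitted from log inhibitor concentration against percent enzyme activity.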 Format: biochemical. Conditions: Btk Enzymatic IC50 Assay, 90 min at 27 C.
Experiment [1] has as its target T1, Btk (Homo sapiens (Human), UniProt Q06187). Briefly: Time Dependent Human Whole Blood IC50 Assay. The format is cell-based. Conditions: read-out: Assay C (IC50).
Experiment [2] addresses T1, Btk. Description: Btk PBMC IC50 Cell Assay (anti-IgM-induced CD69 expression on B cells).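 Further: freshly isolated human PBMCs, IC50 from concentration-response of the share of CD19+ cells expressing CD69 after anti-IgM BCR stimulation.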 The format is cell-based. Conditions: anti-IgM-induced CD69 expression on CD19 positive cells in human PBMCs.

Chain of full-length human BTK (Q06187 whole entry): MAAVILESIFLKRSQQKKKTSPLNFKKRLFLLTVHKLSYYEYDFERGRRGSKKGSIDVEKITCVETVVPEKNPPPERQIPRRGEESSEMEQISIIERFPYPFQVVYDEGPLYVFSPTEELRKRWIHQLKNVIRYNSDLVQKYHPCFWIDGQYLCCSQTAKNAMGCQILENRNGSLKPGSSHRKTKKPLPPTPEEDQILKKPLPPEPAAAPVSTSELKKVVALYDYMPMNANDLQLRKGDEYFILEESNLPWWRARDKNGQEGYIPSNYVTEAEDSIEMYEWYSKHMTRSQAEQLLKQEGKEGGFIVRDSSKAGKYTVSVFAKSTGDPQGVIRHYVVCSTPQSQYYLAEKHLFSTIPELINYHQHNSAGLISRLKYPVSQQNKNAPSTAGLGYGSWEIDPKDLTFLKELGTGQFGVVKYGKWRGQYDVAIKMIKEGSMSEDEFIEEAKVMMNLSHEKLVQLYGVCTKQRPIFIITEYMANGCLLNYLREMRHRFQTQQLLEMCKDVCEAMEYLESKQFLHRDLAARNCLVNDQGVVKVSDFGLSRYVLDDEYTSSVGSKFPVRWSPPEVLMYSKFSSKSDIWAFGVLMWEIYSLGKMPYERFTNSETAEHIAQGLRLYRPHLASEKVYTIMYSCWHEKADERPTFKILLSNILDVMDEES
T1 sequence (Q06187 whole entry): as above

With `Cc1nn(C(C)C)cc1-c1nc2c(-c3ccc4c(c3)CCCCC4NC(=O)c3nc(C(C)(C)C)no3)ccnc2[nH]1` (stereo not drawn) [Compound 132, 3-tert-Butyl-[1,2,4]oxadiazole-5-carboxylic acid {2-[2-(1-isopropyl-3-methyl-1H-pyrazol-4-yl)-3H-imidazo[4,5-b]pyridin-7-yl]-6,7,8,9-tetrahydro-5H-benzocyclohepten-5-yl}-amide], the IC50 at full-length human BTK, at Btk [1] and against Btk [2] was 1 to 10 nM each time.

For `CCc1cc(-c2nc3c(-c4ccc5c(c4)CCCCC5NC(=O)c4nc(C(C)(C)C)no4)ccnc3[nH]2)nn1C` (stereo not drawn) [Compound 133, 3-tert-Butyl-[1,2,4]oxadiazole-5-carboxylic acid {2-[2-(5-ethyl-1-methyl-1H-pyrazol-3-yl)-3H-imidazo[4,5-b]pyridin-7-yl]-6,7,8,9-tetrahydro-5H-benzocyclohepten-5-yl}-amide], the figures for the half-inhibitory concentration (IC50) at full-length human BTK, on Btk [1] and against Btk [2] were below 1 nM, 1 to 10 nM and 1 to 10 nM, respectively.

For the compound `Cc1nn(C(C)C)cc1-c1nc2c(-c3ccc4c(c3)CCCCC4NC(=O)c3nc(C4(C)CC4)no3)ccnc2[nH]1` (stereo not drawn) [Compound 134, 3-(1-Methyl-cyclopropyl)-[1,2,4]oxadiazole-5-carboxylic acid {2-[2-(1-isopropyl-3-methyl-1H-pyrazol-4-yl)-3H-imidazo[4,5-b]pyridin-7-yl]-6,7,8,9-tetrahydro-5H-benzocyclohepten-5-yl}-amide], the half-inhibitory concentration (IC50) at full-length human BTK was below 1 nM; on Btk [1] it was 1 to 10 nM; at Btk [2], 1 to 10 nM.

Consider `CCn1nc(C)c(-c2nc3c(-c4ccc5c(c4)CCCCC5NC(=O)c4nc(C5(C)CC5)no4)ccnc3[nH]2)c1C` (stereo not drawn) [Compound 135, 3-(1-Methyl-cyclopropyl)-[1,2,4]oxadiazole-5-carboxylic acid {2-[2-(1-ethyl-3,5-dimethyl-1H-pyrazol-4-yl)-3H-imidazo[4,5-b]pyridin-7-yl]-6,7,8,9-tetrahydro-5H-benzocyclohepten-5-yl}-amide], for which the IC50 at full-length human BTK is below 1 nM; at Btk [1] it was 1 to 10 nM; at Btk [2], 1 to 10 nM.

As to `Cc1c(-c2nc3c(-c4ccc5c(c4)CCCCC5NC(=O)c4nc(C(C)(C)C)no4)ccnc3[nH]2)cnn1C(C)C` (stereo not drawn) [Compound 136, 3-tert-Butyl-[1,2,4]oxadiazole-5-carboxylic acid {2-[2-(1-isopropyl-5-methyl-1H-pyrazol-4-yl)-3H-imidazo[4,5-b]pyridin-7-yl]-6,7,8,9-tetrahydro-5H-benzocyclohepten-5-yl}-amide], the figures for the 50% inhibitory concentration (IC50) on full-length human BTK, at Btk [1] and against Btk [2] were below 1 nM, 10 to 100 nM and 1 to 10 nM, respectively.

Take `Cc1nn(C2CCOCC2)c(C)c1-c1nc2c(-c3ccc4c(c3)CCCC4NC(=O)c3nc(C(C)(C)C)no3)ccnc2[nH]1` (stereo not drawn) [Compound 140, 3-tert-Butyl-[1,2,4]oxadiazole-5-carboxylic acid (6-{2-[3,5-dimethyl-1-(tetrahydro-pyran-4-yl)-1H-pyrazol-4-yl]-3H-imidazo[4,5-b]pyridin-7-yl}-1,2,3,4-tetrahydro-naphthalen-1-yl)-amide]: the IC50 at full-length human BTK is below 1 nM; at Btk [1], above 100 nM; against Btk [2], 10 to 100 nM.

Turning to `Cc1nn(C)c(C)c1-c1nc2c(-c3ccc4c(c3)CCCC[C@H]4NC(=O)c3nc(C(C)(C)C)no3)ccnc2[nH]1` [Compound 142, 3-tert-Butyl-[1,2,4]oxadiazole-5-carboxylic acid {(R)-2-[2-(1,3,5-trimethyl-1H-pyrazol-4-yl)-3H-imidazo[4,5-b]pyridin-7-yl]-6,7,8,9-tetrahydro-5H-benzocyclohepten-5-yl}-amide], the 50% inhibitory concentration (IC50) at full-length human BTK is below 1 nM; on Btk [1], 1 to 10 nM; against Btk [2], 1 to 10 nM.

Take `Cc1nn(C)c(C)c1-c1nc2c(-c3ccc4c(c3)CCCCC4NC(=O)c3nc(C4(C)CC4)no3)ccnc2[nH]1` (stereo not drawn) [Compound 143, 3-(1-Methyl-cyclopropyl)-[1,2,4]oxadiazole-5-carboxylic acid {2-[2-(1,3,5-trimethyl-1H-pyrazol-4-yl)-3H-imidazo[4,5-b]pyridin-7-yl]-6,7,8,9-tetrahydro-5H-benzocyclohepten-5-yl}-amide]: the IC50 on full-length human BTK was below 1 nM; on Btk [1], 10 to 100 nM; at Btk [2], 1 to 10 nM.

For `Cc1c(-c2nc3c(-c4ccc5c(c4)CCCC5NC(=O)c4nc(C5(C)CC5)no4)ccnc3[nH]2)cnn1C1CCOCC1` (stereo not drawn) [Compound 148, 3-(1-Methyl-cyclopropyl)-[1,2,4]oxadiazole-5-carboxylic acid (6-{2-[5-methyl-1-(tetrahydro-pyran-4-yl)-1H-pyrazol-4-yl]-3H-imidazo[4,5-b]pyridin-7-yl}-1,2,3,4-tetrahydro-naphthalen-1-yl)-amide], the 50% inhibitory concentration (IC50) is below 1 nM at full-length human BTK, 10 to 100 nM on Btk [1] and 10 to 100 nM against Btk [2].

With `Cc1c(-c2nc3c(-c4ccc5c(c4)CCCC5NC(=O)c4noc(C(C)(C)C)n4)ccnc3[nH]2)cnn1C(C)C` (stereo not drawn) [Compound 149, 5-tert-Butyl-[1,2,4]oxadiazole-3-carboxylic acid {6-[2-(1-isopropyl-5-methyl-1H-pyrazol-4-yl)-3H-imidazo[4,5-b]pyridin-7-yl]-1,2,3,4-tetrahydro-naphthalen-1-yl}-amide], the IC50 was below 1 nM at full-length human BTK, 10 to 100 nM at Btk [1] and 1 to 10 nM on Btk [2].

As to `Cc1c(-c2nc3c(-c4ccc5c(c4)CCCC5NC(=O)c4noc(C(C)(C)C)n4)ccnc3[nH]2)cnn1C1CCOCC1` (stereo not drawn) [Compound 150, 5-tert-Butyl-[1,2,4]oxadiazole-3-carboxylic acid (6-{2-[5-methyl-1-(tetrahydro-pyran-4-yl)-1H-pyrazol-4-yl]-3H-imidazo[4,5-b]pyridin-7-yl}-1,2,3,4-tetrahydro-naphthalen-1-yl)-amide], the IC50 is below 1 nM at full-length human BTK, 1 to 10 nM on Btk [1] and 1 to 10 nM on Btk [2].

For `Cc1cc(-c2nc3c(-c4ccc5c(c4)CCCC[C@H]5NC(=O)c4nnc(C(C)(C)C)o4)ccnc3[nH]2)nn1C` [Compound 153, 5-tert-Butyl-[1,3,4]oxadiazole-2-carboxylic acid {(R)-2-[2-(1,5-dimethyl-1H-pyrazol-3-yl)-3H-imidazo[4,5-b]pyridin-7-yl]-6,7,8,9-tetrahydro-5H-benzocyclohepten-5-yl}-amide], the concentration for half-maximal inhibition (IC50) was below 1 nM on full-length human BTK, 1 to 10 nM on Btk [1] and 1 to 10 nM against Btk [2].

Turning to `Cc1c(-c2nc3c(-c4ccc5c(c4)CCC[C@@H]5NC(=O)c4nc(C5(C)CC5)no4)ccnc3[nH]2)cnn1C1CCOCC1` [Compound 155, 3-(1-Methyl-cyclopropyl)-[1,2,4]oxadiazole-5-carboxylic acid ((S)-6-{2-[5-methyl-1-(tetrahydro-pyran-4-yl)-1H-pyrazol-4-yl]-3H-imidazo[4,5-b]pyridin-7-yl}-4-yl]-3H-imidazo[4,5-1,2,3,4-tetrahydro-naphthalen-1-yl)-amide], the IC50 at full-length human BTK was below 1 nM; at Btk [1], 10 to 100 nM; at Btk [2], 1 to 10 nM.

Regarding `Cc1c(-c2nc3c(-c4ccc5c(c4)CCC[C@@H]5NC(=O)c4noc(C(C)(C)C)n4)ccnc3[nH]2)cnn1C1CCOCC1` [Compound 157, 5-tert-Butyl-[1,2,4]oxadiazole-3-carboxylic acid ((S)-6-{2-[5-methyl-1-(tetrahydro-pyran-4-yl)-1H-pyrazol-4-yl]-3H-imidazo[4,5-b]pyridin-7-yl}-1,2,3,4-tetrahydro-naphthalen-1-yl)-amide], the IC50 at full-length human BTK is below 1 nM; on Btk [1], 1 to 10 nM; at Btk [2], 1 to 10 nM.

Regarding `Cc1c(-c2nc3c(-c4ccc5c(c4)CCCC[C@H]5NC(=O)c4nc(C(C)(C)C)no4)ccnc3[nH]2)cnn1C(C)C` [Compound 160, 3-tert-Butyl-[1,2,4]oxadiazole-5-carboxylic acid {(R)-2-[2-(1-isopropyl-5-methyl-1H-pyrazol-4-yl)-3H-imidazo[4,5-b]pyridin-7-yl]-6,7,8,9-tetrahydro-5H-benzocyclohepten-5-yl}-amide], the IC50 at full-length human BTK is below 1 nM; at Btk [1], 1 to 10 nM; on Btk [2], 1 to 10 nM.

In the case of `Cc1c(-c2nc3c(-c4ccc5c(c4)CCC[C@H]5NC(=O)c4noc(C(C)(C)C)n4)ccnc3[nH]2)cnn1C(C)C` [Compound 164, 5-tert-Butyl-[1,2,4]oxadiazole-3-carboxylic acid {(R)-6-[2-(1-isopropyl-5-methyl-1H-pyrazol-4-yl)-3H-imidazo[4,5-b]pyridin-7-yl]-1,2,3,4-tetrahydro-naphthalen-1-yl}-amide], the IC50 at full-length human BTK is 1 to 10 nM; on Btk [1], above 100 nM; on Btk [2], 1 to 10 nM.

Take `Cc1c(-c2nc3c(-c4ccc5c(c4)CCC[C@@H]5NC(=O)c4noc(C(C)(C)C)n4)ccnc3[nH]2)cnn1C(C)C` [Compound 165, 5-tert-Butyl-[1,2,4]oxadiazole-3-carboxylic acid {(S)-6-[2-(1-isopropyl-5-methyl-1H-pyrazol-4-yl)-3H-imidazo[4,5-b]pyridin-7-yl]-1,2,3,4-tetrahydro-naphthalen-1-yl}-amide]: the results for the 50% inhibitory concentration (IC50) on full-length human BTK, at Btk [1] and on Btk [2] were below 1 nM, 10 to 100 nM and 1 to 10 nM, respectively.

One may read the IC50 as the concentration that gives 50% inhibition.
